Literature values in patent publication US20260130395A1, “Water Dispersible Botanical Compositions” (Aquila Black Limited, priority 2021, published 2026).

Molecular target: T1, 5-HT3 serotonin receptor (Homo sapiens, UniProt P46098)
T1 sequence (P46098 24-478): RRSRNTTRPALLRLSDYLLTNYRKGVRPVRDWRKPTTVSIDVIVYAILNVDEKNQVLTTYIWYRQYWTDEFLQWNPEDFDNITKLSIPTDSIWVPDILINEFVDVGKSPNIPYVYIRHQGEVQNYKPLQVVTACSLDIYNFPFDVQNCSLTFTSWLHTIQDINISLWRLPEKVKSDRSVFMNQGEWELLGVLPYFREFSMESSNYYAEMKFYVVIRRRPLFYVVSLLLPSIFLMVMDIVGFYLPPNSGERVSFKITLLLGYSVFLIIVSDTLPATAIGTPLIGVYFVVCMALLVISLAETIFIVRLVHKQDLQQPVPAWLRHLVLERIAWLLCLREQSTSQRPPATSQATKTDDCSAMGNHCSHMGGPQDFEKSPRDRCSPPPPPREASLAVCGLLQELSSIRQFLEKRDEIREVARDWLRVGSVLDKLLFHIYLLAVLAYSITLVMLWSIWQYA
Conditions: Nebrisi et al. 2020, Front. Pharmacol. 11:1274; cited from earlier work

COc1cc(CNC(=O)CCCC/C=C/C(C)C)ccc1O [capsaicin]
mode of action at the 5-HT3 serotonin receptor: negative allosteric modulator
